Measurements from patent US20050132430A1, “Igamete recruitment and developmental competence in mammals by inhibiting the de-nova sterol biosynthesis and/or promoting sterol efflux” (priority 2001, published 2005).

Assays:
[1] = tested on: C57 black×DBA 2 F1 female mice; experiment: Number of 2-cells in tuba of gonadotropin-stimulated female mice after statin administration and mating; format: in vivo, mouse; settings: for No. of 2-cells in mated animals: pre-pubertal, Gnrh 12 I.U., hCG 10 I.U.
Protocol: Prepubertal C57 black×DBA 2 F1 female mice (M&B A/S, Ry, Denmark) were stimulated to super-ovulation (11 a.m. at day 0) by i.p. Injections of 12 IU Menogon® (Ferring, Denmark) in 200 μL H2O. […] Half of the mice were given additional Injections of 1.6 mg lovastatin, by dissolving a tablet of Mevacor® (Merck Sharp and Dohme, NL) containing 40 mg lovastatin in 5 ml PBS and injecting 200 μL of the resulting slurry i.p. at three consecutive days, beginning at day 0. […] The mice were caged individually one hour later with a mature male mouse of the same strain and supplier (1 male per female). Female and male mice were separated at 9 a.m. at day 3, females were left alone for another 48 h. After killing of the females and dissection of the tuba ovarii, 2-cells were flushed into a plastic dish with culture medium (see later) by mounting a glass pipette in one end of the isolated tuba and blowing by mouth through a filter. The total number of 2-cells flushed per mouse were hereafter counted. The 2-cells were subsequently cultured in Universal IVF-medium (Medicult, Denmark) in an incubator (37° C., 95% atmospheric air, 5% CO2) in 4-well dishes (Nunclon 176740, Nunc, Denmark). After 4 days of culture, wells were scored and numbers of morula, blastocyst or degenerated entities were determined by use of a microscope:
Prepubertal C57 black×DBA 2 F1 female mice (M&B A/S, Ry, Denmark) were treated as in example 1 but for a few deviations. […] In experiment B the dose of statins was decreased to 3×100 μg/animal and administered as in example 1. […] In experiment D the dose of gonadotropins were decreased gradually whereas the dose of statins was administered as in example 1.

[2] = tested on: C57 black×DBA 2 F1 female mice; experiment: as above; format: in vivo, mouse
[3] = tested on: motile cell fraction of epididymis; experiment: C/PL-ratio in motile cell fraction of epididymis after statin administration; format: in vivo, mouse; settings: 3 i.p. injections of 1.0 mg lovastatin per 30 g body weight, male mice
Protocol: Post-pubertal C57 black×DBA 2 F1 male mice (M&B A/S, Ry, Denmark) are used. Four mice are given 3 i.p. injections of 1.0 mg lovastatin per 30 g body weight by dissolving a tablet of Mevacor® (Merck Sharp and Dohme, NL) containing 40 mg lovastatin in 8 ml PBS and injecting 200 μL of the resulting slurry i.p. at 1 p.m. at day-6, -3 and -1, counting the day of epididymal sperm harvest as day 0. […] At 10 a.m on day 0 all mice are killed and the epididymis are prepared in physiological saline. Thereafter, the epididymis are transferred to a 1-mL culture well containing MEM (Gibco BRL, Scotland) supplemented with 2.3 mM pyruvate, 200 mM L-glutamine (Gibco BRL, Scotland), 20000 IU/L penicillin (Gibco BRL, Scotland), 20000 IU/L streptomycin (Gibco BRL, Scotland) and 0.2 mg/ml BSA (Sigma A-7030, Sigma-Aldrich, Denmark) and placed in an incubator (37° C., 95% atmospheric air: 5% CO2).
After 1.5 hours of incubation, the upper liquid phase is aspirated and transferred to a new glass-vial and centrifuged. […] One half is subjected to sterol analysis as designated in the examples above and the total sterol content is calculated to consist of cholesterol, desmosterol, cholesta-7,24-dien-3β-ol, T-MAS and lanosterol. […] The C/PL-ratio is calculated for each individual animal.

[4] = tested on: C57 black×DBA 2 F1 male mice; experiment: Sperm quality in mice after statin administration; format: in vivo, mouse; settings: statin administration as in example 6
Protocol: The set-up involves the same animals and statin administration as in example 6. The animals are analysed by methods that are developed in order to evaluate the fertilising potential and sperm quality.

[5] = tested on: patients with type II hyperlipoprotelnemia; settings: oral 40 mg daily for 4 months vs dietary management alone; cited from earlier work
[6] = tested on: gonadotrophin primed prepubertal mouse ovaries; experiment: Free cholesterol, FF-MAS and progesterone in ovaries of gonadotrophin primed prepubertal mice (HPLC); format: in vivo; settings: statin treatment on top of hCG
Protocol: Ovaries were isolated pair-wise, weighed, freeze-dried, weighed again and subsequently extracted in 1.0 ml (v/v) 75% n-heptane: 25% isopropanol. […] Eluted material was detected by ultraviolet light absorption between 200-300 nm. […] Standards for cholesterol (Steraloids […]) and P4 (Sigma P-0130) were obtained commercially whereas the FF-MAS standards used was produced in the laboratory as described before (Baltsen et al., 1999).

naked mouse oocytes (NO) = experiment: IVF fertilisation of naked oocytes after IVM with cyclodextrin; format: cell-based
Source text: Mouse oocytes were isolated and cultured according to descriptions in […]. The NOs were divided into […] groups and cultured in dishes containing medium added either 0%o, 0.5%o, 2.0%o or 5%o hydroxypropyl-cyclodextrin (ICN 153540, ICN Ohio, U.S.A.). IVM and IVF conditions were the same as in example 6.

[7] = tested on: mouse cumulus enclosed oocytes (CEO); experiment: IVF fertilisation of cumulus enclosed oocytes after IVM with a statin; format: cell-based
Protocol: Mouse oocytes were isolated and cultured according to descriptions in example 3 but for a single deviation in that the IVM culture medium was further supplemented with 1 mg/mL Fetuin (Sigma F-3385, Sigma, U.S.A.). […] The ethanol was necessary in order to dissolve Mevinolin in the medium. After in vitro maturation for 22 h, oocytes were transferred to a fertilisationn medium consisting of minimal essential medium (MEM) (21090-022, Gibco BRL, Scotland), 200 mM L-glutamine (Gibco BRL, Scotland), 20000 IU/L penicillin (Gibco BRL, Scotland), 20000 IU/L streptomycin (Gibco BRL, Scotland), 3 mg/ml BSA (Sigma A-7030, Sigma-Aldrich, Denmark), 2.3 mM sodium pyruvate (S-8636, Sigma), 10 mM ethylen diamine tetra acetic acid (EDTA, Merck 1.08418.0250) and 1 mg/mL Fetuin (Sigma F-3385, Sigma, U.S.A.). Prior to oocyte transfer into the fertilisation medium, mouse sperm for IVF was obtained the following way: A 6-9 month old C57 black×DBA 2 F1 male mouse (M&B A/S, Ry, Denmark) was killed and the epididymis prepared in physiological saline. Thereafter, the epididymis were cut in small pieces and the bulk material was transferred to four 1-mL culture well containing the 800 μL IVF-medium described above and subsequently placed in an incubator (37° C., 95% atmospheric air: 5% CO2). After 1.5 hours of incubation, 300 μL of the upper liquid phase of each of the four wells was aspirated and transferred to a new glass-vial. The resulting pool of motile sperm was counted in a counting chamber and 50000 motile sperm cells was added each oocyte culture. […] These oocytes were left for another 48 hours and subsequently counted according to the maturational status of the oocyte or the progression of the fertilised zygote, i.e. GV-oocytes, GVBD-oocytes, PB-oocytes, PB^2-oocytes (oocytes with a visible second polar body), 2-cells, 3-4-cells, 4+ cells (zygotes with more than 4 blastomeres) and degenerated cells (usually granulated or cells with extensive plasma-membrane ondulation).

Compound: CC[C@H](C)C(=O)O[C@H]1C[C@@H](C)C=C2C=C[C@H](C)[C@H](CC[C@@H]3C[C@@H](O)CC(=O)O3)[C@H]21 [Mevacor, lovastatin]
- development of cultured 2-cells into blastocysts, recovery rates ([1]; 2-cells cultured in vitro 4 days): indiscriminate to controls
- number of 2-cells per animal ([1]; 3×1.6 mg statin i.p. during follicular phase maturation, vs control): increased significantly
- No. of 2-cells in mated animals ([1]; Exp. A, 100 μg single, ovulation): 27.5 ± 3.5
- No. of 2-cells in mated animals ([1]; Exp. A, 1000 μg single, ovulation): 15.3 ± 7.3
- No. of 2-cells in mated animals ([1]; Exp. B, 100 μg single, ovulation): 19.3 ± 4.1
- No. of 2-cells in mated animals ([1]; Exp. B, 3 × 100 μg multi, follicular phase): 6.5 ± 1.0
- more 2-cells as compared to mice stimulated with hormone alone ([1]; hormone stimulated prepubertal female mice, average, FIG. 5): about 70%
- No. of 2-cells in mated animals ([2]; Exp. C, mature cycling, Gnrh 12 I.U., 3 × 1.0 mg multi, follicular phase): 11.4 ± 2.9
- No. of 2-cells in mated animals ([2]; Exp. C, mature cycling, Gnrh 15 I.U., hCG 10 I.U., 1.0 mg single, ovulation): 16.8 ± 3.4
- No. of 2-cells in mated animals ([2]; Exp. D, pre-pubertal, Gnrh 4 I.U., hCG 5 I.U., 3 × 1.0 mg multi, follicular phase): 5
- C/PL-ratios vs control group [3]: lower
- fertilising potential and sperm quality vs control animals [4]: fertility premium
- sperm motility [5]: small but statistically significant reduction
- LH/hCG induced accumulation of FF-MAS [6]: completely blocks
- extent of progesterone (steroid) production [6]: not influenced
- tendency of decreasing tissue density of free cholesterol in the ovaries after hCG stimulation [6]: pronounced

Compound: CC(O)COC[C@H]1O[C@@H]2O[C@H]3[C@H](O)[C@@H](O)[C@@H](O[C@H]4[C@H](O)[C@@H](O)[C@@H](O[C@H]5[C@H](O)[C@@H](O)[C@@H](O[C@H]6[C@H](O)[C@@H](O)[C@@H](O[C@H]7[C@H](O)[C@@H](O)[C@@H](O[C@H]8[C@H](O)[C@@H](O)[C@@H](O[C@H]1[C@H](O)[C@H]2O)O[C@@H]8COCC(C)O)O[C@@H]7COCC(C)O)O[C@@H]6COCC(C)O)O[C@@H]5COCC(C)O)O[C@@H]4COCC(C)O)O[C@@H]3COCC(C)O (stereo partly drawn) [hydroxypropyl-beta-cyclodextrin, hydroxypropyl-β-cyclodextrin]
- fraction of fertilised oocytes (PB2-oocytes to 4+ cells) after IVF (naked mouse oocytes (NO); 0.5, 2.0 or 5 per mille in IVM-medium of NOs vs control): increased
- rate of degeneration (naked mouse oocytes (NO); cyclodextrin in the IVM-medium): not affected

Compound: Mevinolin
- fraction of fertilised oocytes (PB2-oocytes to 4+ cells) after IVF ([7]; 10 μM statin in IVM-medium 22 h, vs control and 7.5 I.U./L FSH): increased
- state of development after 72 hours of embryo culture ([7]; vs control and FSH groups): more progressed state
- cumulus expansion after the IVM culture period ([7]; vs control oocytes): extensive cumulus expansion
